From patent US7390783B2, “Charged phospholipid compositions and methods for their use” (Ottawa Heart Institute Research Corporation, priority 2000, dated 2008)
“Also recorded” adds a separate entry of the source.

Experiments:
HDL, LDL and VLDL = assay: Lipoprotein surface charge after injection of PI or PC vesicles into rabbits (agarose gel electrophoresis); type: in vivo, rabbit
Method: 1-palmitoyl-2-oleoyl-phosphatidylcholine (PC) and 1-palmitoyl-2-oleoyl phosphatidylinositol (PI) vesicles are prepared by drying to completion 40 μmol of each lipid into a 12×75 mm culture tube under N2. The lipids are solubilized in 3 mL of sterile saline comprising 150 mM sodium chloride (pH 7.2) by sonication for 1 minute at constant duty cycle. The vesicles are incubated at 37° C. for 10 minutes and then sonicated at a high output for 4 minutes in 10° C. water bath under N2. In order to determine the rate of clearance of cholesterol from the test animals (rabbits), a radioactive tracer is added to the vesicle preparations prior to injection into the rabbit. 200 μL of 1 μCi/μmL [^3H]-FC is dried into a 12×75 mm culture tube with 40 μmol of PI or POPC. 3 ml of PBS is added to the dried lipids and the mixture is sonicated as described above. This tracer/vesicle preparation is injected and then 5 min later, the PI or PC vesicles were injected and blood is sampled as described below.
Male New Zealand white rabbits (3.5-4.0 kg) are fasted for 12 hours prior to injection and remain fasted until after data for the final time point is taken. Rabbits have free access to water during this time. A catheter is inserted into the marginal ear vein and blood samples are collected into tubes containing 7.5% (K3) EDTA solution at the desired time points. A pre-injection blood sample is taken and the vesicle solution of either PI (n=4), or PC (n=2) or saline (n=1) is injected into the marginal ear vein. A sample of blood is removed at 10, 30 min, 1, 3, 6 and 24 h after the injection. All blood samples are placed on ice and then centrifuged at 3000 rpm for 15 min at 4° C. to separate the plasma. In order to ensure that lecithin:cholesterol acyl transferase (LCAT) is inhibited in the stored plasma, iodoacetamide (150 mM) is added to plasma samples as taught by Guerin et al. (1994).
Lipoprotein fractions are isolated by sequential ultracentrifugation (VLDL+IDL, d<1.019 g/mL; LDL, d=1.019-1.063 g/mL; and HDL, d=1.063-1.21 g/mL) as known to one of skill in the art, and lipoprotein lipid composition (total cholesterol, free cholesterol (FC), and triglyceride (TG) concentrations) are determined enzymatically using kits from Roche Diagnostic (Laval, PQ). An aliquot of each lipoprotein isolated is dialysed into PBS and its surface charge characteristics were determined by electrophoresis on pre-cast 0.5% agarose gels using the procedure of Sparks and Phillips (1992).
Referring now to FIG. 1, there is illustrated the effect of injection of PI and PC vesicles on the estimated surface potential of HDL, LDL, and VLDL proteins in vivo. […] PC, which is a neutral phospholipid, may also bind to the lipoproteins. However since PC is a neutral phospholipid, no significant change in the migration of the lipoproteins is observed. The increased migratory property of lipoproteins in a gel peaks following injection of PI and returns to normal by about 24 hours. […] Similarly, the VLDL fraction is estimated to have an initial surface potential of about −8.8 mV, which increases to about −11.2 mV after 10 minutes. LDL is estimated to have an initial surface potential of about −3.9 mV, and peaks about 60 min after the PI injection at about −8.0 mV.

[1] = PI mass measurements in HDL after injection of PI vesicles; type: in vivo, rabbit
From the text: The clearance of PI from the different lipoproteins may have been due to either a lipoprotein-cellular transfer or to a selective hydrolysis by a charged phospholipid specific phospholipase.

CCCCCCCC/C=C\CCCCCCCC(=O)O[C@H](COC(=O)CCCCCCCCCCCCCCC)COP(=O)(O)O[C@@H]1[C@H](O)[C@H](O)[C@@H](O)[C@H](O)[C@H]1O [PI, 1-palmitoyl-2-oleoyl phosphatidylinositol]
HDL surface potential, peak negative charge (HDL, LDL and VLDL; about 10 minutes after injection, background about −12.2 mV prior to injection, estimated from gel migration): about −18.0 mV | LDL surface potential, peak (HDL, LDL and VLDL; about 60 min after injection, initial about −3.9 mV, estimated): about −8.0 mV | VLDL surface potential (HDL, LDL and VLDL; after 10 minutes, initial about −8.8 mV, estimated): about −11.2 mV | time for increased lipoprotein migration to return to normal (HDL, LDL and VLDL; after injection): about 24 hours | effect on lipoprotein net negative surface charge / migration of HDL, LDL and VLDL into agarose gel (HDL, LDL and VLDL; intravenous injection of vesicles, fasted rabbit): significant increase; also recorded: increased migration of all lipoprotein fractions | level of PI in HDL, of the total HDL-PL ([1]; after 10 min, initially below detection levels): up to 30% | HDL-PI content, of the HDL-PL ([1]; by 3 h): 5-10%
